From PubChem BioAssay (NCI)
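96-well plates; 48 h exposure; 5 concentrations. Endpoints by linear interpolation between flanking doses. Not reached: highest tested concentration assigned. At the GI50, growth is halved. The concentration for full growth arrest is given as TGI.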

How the values were obtained:
Assay in all cases: NCI tumour cell line growth inhibition, 48 h
786-0 renal = test system: 786-0 renal
A498 renal = test system: A498 renal
A549 NSCLC = test system: A549 NSCLC
ACHN renal = test system: ACHN renal
BT-549 breast = test system: BT-549 breast
CAKI-1 renal = test system: CAKI-1 renal
CCRF-CEM leukemia = test system: CCRF-CEM leukemia
COLO 205 colon = test system: COLO 205 colon
DU-145 prostate = test system: DU-145 prostate
EKVX NSCLC = test system: EKVX NSCLC
HCC-2998 colon = test system: HCC-2998 colon
HCT-116 colon = test system: HCT-116 colon
HCT-15 colon = test system: HCT-15 colon
HL-60(TB) leukemia = test system: HL-60(TB) leukemia
HOP-62 NSCLC = test system: HOP-62 NSCLC
HOP-92 NSCLC = test system: HOP-92 NSCLC
HS 578T breast = test system: HS 578T breast
HT29 colon = test system: HT29 colon
IGROV1 ovarian = test system: IGROV1 ovarian
K-562 leukemia = test system: K-562 leukemia
KM12 colon = test system: KM12 colon
LOX IMVI melanoma = test system: LOX IMVI melanoma
M14 melanoma = test system: M14 melanoma
MALME-3M melanoma = test system: MALME-3M melanoma
MCF7 breast = test system: MCF7 breast
MDA-MB-231 breast = test system: MDA-MB-231 breast
MDA-MB-435 = test system: MDA-MB-435
MOLT-4 leukemia = test system: MOLT-4 leukemia
NCI-H226 lung = test system: NCI-H226 lung

SMILES: O=C(O)c1ccc(-n2c(=O)n(-c3cccc(C(F)(F)F)c3)c(=O)c3cc(-c4ccc(F)cc4F)ccc32)cc1
- GI50 (786-0 renal): 1.83 µM
- TGI (786-0 renal): 3.63 µM
- GI50 (A498 renal): 0.524 µM
- TGI (A498 renal): 1.87 µM
- GI50 (A549 NSCLC): 2.96 µM
- TGI (A549 NSCLC): 13.5 µM
- GI50 (ACHN renal): 2.67 µM
- TGI (ACHN renal): 10.6 µM
- GI50 (BT-549 breast): 1.54 µM
- TGI (BT-549 breast): 3.11 µM
- GI50 (CAKI-1 renal): 2.11 µM
- TGI (CAKI-1 renal): 6.96 µM
- GI50 (CCRF-CEM leukemia): 3.32 µM
- TGI (CCRF-CEM leukemia): 20.9 µM
- GI50 (COLO 205 colon): 2.85 µM
- TGI (COLO 205 colon): 7.41 µM
- GI50 (DU-145 prostate): 3.37 µM
- TGI (DU-145 prostate): 14.2 µM
- GI50 (EKVX NSCLC): 2.53 µM
- TGI (EKVX NSCLC): 8.53 µM
- GI50 (HCC-2998 colon): 3.03 µM
- TGI (HCC-2998 colon): 9.71 µM
- GI50 (HCT-116 colon): 1.1 µM
- TGI (HCT-116 colon): 2.39 µM
- GI50 (HCT-15 colon): 1.04 µM
- TGI (HCT-15 colon): 3 µM
- GI50 (HL-60(TB) leukemia): 0.323 µM
- TGI (HL-60(TB) leukemia): 11.1 µM
- GI50 (HOP-62 NSCLC): 2.04 µM
- TGI (HOP-62 NSCLC): 4.66 µM
- GI50 (HOP-92 NSCLC): 0.525 µM
- TGI (HOP-92 NSCLC): 3.54 µM
- GI50 (HS 578T breast): 2.12 µM
- TGI (HS 578T breast): 6.98 µM
- GI50 (HT29 colon): 3.58 µM
- TGI (HT29 colon): 13.7 µM
- GI50 (IGROV1 ovarian): 2.91 µM
- TGI (IGROV1 ovarian): 20.5 µM
- GI50 (K-562 leukemia): 0.335 µM
- TGI (K-562 leukemia): 7.74 µM
- GI50 (KM12 colon): 2.59 µM
- TGI (KM12 colon): 7.49 µM
- GI50 (LOX IMVI melanoma): 1.73 µM
- TGI (LOX IMVI melanoma): 3.53 µM
- GI50 (M14 melanoma): 1.58 µM
- TGI (M14 melanoma): 3.72 µM
- GI50 (MALME-3M melanoma): 1.78 µM
- TGI (MALME-3M melanoma): 5.42 µM
- GI50 (MCF7 breast): 2 µM
- TGI (MCF7 breast): 9.29 µM
- GI50 (MDA-MB-231 breast): 2.18 µM
- TGI (MDA-MB-231 breast): 6.71 µM
- GI50 (MDA-MB-435): 2.31 µM
- TGI (MDA-MB-435): 7.62 µM
- GI50 (MOLT-4 leukemia): 1.44 µM
- TGI (MOLT-4 leukemia): 6.16 µM
- GI50 (NCI-H226 lung): 1.72 µM
